Test results published in patent US10364222B2, “Cyclic amine derivative and medical use thereof” (Toray Industries, Inc., priority 2016, dated 2019).

Key:
[1] = system: mouse experimental autoimmune encephalomyelitis model; assay: Mouse experimental autoimmune encephalomyelitis model; type: in vivo; conditions: C57BL/6J mice, vs vehicle
Protocol: Using increase in the neurological symptom score as an index of exacerbation of symptoms, the effect of the cyclic amine derivative (I) or a pharmacologically acceptable salt thereof in a mouse experimental autoimmune encephalomyelitis model was evaluated. The mouse experimental autoimmune encephalomyelitis model was prepared by a partially modified method by Hindinger et al. (Journal of Neuroscience Research, 2006, Vol. 84, p. 1225-1234).
A total of 0.1 mL (0.05 mL on each side) of an MOG35-55 administration solution prepared by mixing a PBS solution containing partial synthetic peptides of myelin oligodendrocyte glycoproteins (MOG35-55; CSBio, Inc.) prepared to a concentration of 4 mg/mL with Freund's complete adjuvant at equal amount was intradermally inoculated to both flank sides of C57BL/6J mice (male, 8 weeks old) (Charles River Laboratories Japan, Inc.). Furthermore, 200 μL of pertussis toxin (Sigma-Aldrich Japan) prepared to a concentration of 1 μg/mL was intraperitoneally administered to the mice on the day of inoculation and 2 days after inoculation of the MOG35-55 administration solution.
After inoculation of the MOG35-55 administration solution, the test compound was administered to the mice. As the test compound, the compound of Example 20, the compound of Example 29, and the compound of Example 57 were used. The compound of Example 20 was suspended in a 0.5 w/v % methylcellulose solution and orally administered once daily at a dose of 3 mg/kg every day from 2 days after inoculation of the MOG35-55 administration solution. […]
After inoculation of the MOG35-55 administration solution, the neurological symptom scores in the groups in which test compound was administered and the corresponding vehicle administration groups were scored (0: normal, 1: limp tail or hind limb weakness, 2: limp tail and hind limb weakness, 3: partial hind limb paralysis, 4: complete hind limb paralysis, 5: moribund state). […]

[2] = system: DNFB-induced mouse allergic dermatitis model; assay: DNFB-induced mouse allergic dermatitis model; type: in vivo; conditions: BALB/c mice; 10 mg/kg orally one hour before induction; 24th hour after induction; vs vehicle, Student's t-test P<0.05
Protocol: Using increase in the ear swelling rate as an index of exacerbation of symptoms, the effect of the cyclic amine derivative (I) or a pharmacologically acceptable salt thereof in a DNFB-induced mouse allergic dermatitis model was evaluated. The DNFB-induced mouse allergic dermatitis model was prepared by a partially modified method by Curzytek et al. (Pharmacological Reports, 2013, Vol. 65, p. 123′7-1246).
BALB/c mice (female, 6 weeks old) (Charles River Laboratories Japan, Inc.) were used at 7 weeks old after preliminary breeding. To the back of the mice, 25 μL of a 0.5 v/v % DNFB solution dissolved in acetone:olive oil (4:1) was applied. The next day, the same operation was repeated to sensitize the mice. Four days after the sensitization, 10 μL each of a 0.2 v/v % DNFB solution dissolved in acetone:olive oil (4:1) was applied to both sides of the right auricle of the sensitized mice to induce inflammation.
One hour before induction, the compound of Example 20, the compound of Example 29, or the compound of Example 57 was administered at a dose of 10 mg/kg to the mice. The compound of Example 20, the compound of Example 29, and the compound of Example 57 were suspended in a 0.5 w/v % methylcellulose solution and orally administered. The group in which the compound of Example 20 was administered to mice was defined as the Example-20 compound administration group, the group in which the compound of Example 29 was administered was defined as the Example-29 compound administration group, and the group in which the compound of Example 57 was administered was defined as the Example-57 compound administration group. […]
The right ear thickness before application of the DNFB solution (before induction) on the induction day and the right ear thickness at the 24th hour after induction were measured with a digital micrometer (Mitutoyo Corporation). The swelling rate of the auricle was calculated by Formula 3 and used as an index of the drug efficacy evaluation. […]

| Structure (SMILES) | increase in the neurological symptom score ([1]; 1 mg/kg orally once daily from 13 days after MOG35-55 inoculation, score on the 23rd day, Wilcoxon test P<0.05 (FIG. 2)) | ear swelling rate (%) [2] | increase in the neurological symptom score ([1]; 3 mg/kg orally once daily from 2 days after MOG35-55 inoculation, score on the 13th day, Wilcoxon test P<0.05 (FIG. 1)) | increase in the neurological symptom score ([1]; 1 mg/kg orally once daily from 13 days after MOG35-55 inoculation, score on the 30th day, Wilcoxon test P<0.05 (FIG. 3)) |
| --- | --- | --- | --- | --- |
| CN(CC(=O)N1CCCC[C@@H]1C(=O)Nc1ccc(-c2ccccc2OC(F)(F)F)c(Cl)c1)S(C)(=O)=O [Example 29, (R)-N-(2-chloro-2′-(trifluoromethoxy)-[1,1′-biphenyl]-4-yl)-1-(2-(N-methylmethylsulfonamide)acetyl)piperidine-2-carboxamide] | statistically significantly suppressed | statistically significantly suppressed |  |  |
| CC(=O)N1CCCC[C@@H]1C(=O)Nc1ccc(-c2ccccc2OC(F)(F)F)c(Cl)c1 [Example 20, (R)-1-acetyl-N-(2-chloro-2′-(trifluoromethoxy)-[1,1′-biphenyl]-4-yl)piperidine-2-carboxamide] |  | statistically significantly suppressed | statistically significantly suppressed |  |
| O=C(Nc1ccc(-c2ccccc2OC(F)(F)F)c(Cl)c1)[C@H]1CCCCN1C(=O)Cn1cnnn1 [Example 57, (R)-1-(2-(1H-tetrazol-1-yl)acetyl)-N-(2-chloro-2′-(trifluoromethoxy)-[1,1′-biphenyl]-4-yl)piperidine-2-carboxamide] |  | statistically significantly suppressed |  | statistically significantly suppressed |
